Where “and” joins values, the source holds several entries; their conditions need not be identical. Equal entries are not always repeated. Marks after values point to notes of the source that are not given here.
How the values were obtained:
[1] = tested on: Taxol-induced neuropathic pain; assay: Von Frey test (mechanical allodynia) in Taxol induced model of neuropathic pain; format: in vivo, rat; conditions: Group 2; for mean Von Frey force required for withdrawal: 150 mg/kg IP
Experimental: (§1) Neuropathic pain was induced by intraperitoneal administration of Taxol at a dose level of 6 mg/kg on study days 0-6 and 12 mg/kg on study days 7-12. Following injection of Taxol animals experienced pain as was assessed using the von Frey test. The development of neuropathic pain was confirmed by measuring mechanical allodynia (Von Frey test) on study day 13 (for inclusion) and on study day 14 (1 hour and 2 hour post dosing) and 24 hour post first dosing.
All data are presented as means±SEM. Each treatment group was compared to the Vehicle group using Two way ANOVA (for VF) followed by Tukey post-test (GraphPad). Vehicle group is compared to naïve group using T-test. A p value<0.05 is considered to represent a significant difference.
The response to tactile allodynia was evaluated using the Von Frey apparatus (Touch Test®). The rat was placed in an enclosure and positioned on a metal mesh surface, but allowed to move freely. A set of dull monofilaments provide an increasing force was applied on the animal plantar surface of the paw. The lowest force requires for animal paw withdrawal was recorded. Low force values recorded in this test indicate a painful state.

[2] = tested on: CNS activity (motor coordination and balance); assay: Rotarod test; format: in vivo, rats; conditions: 150 mg/kg i.p.; 1 and 6 hr post-dosing
Experimental: The objective of this study was to evaluate the potential CNS effects of LR-90 and gabapentin (the latter a widely used drug for neuropathic pain) in rats. LR-90 in 20% HPβCD formulation was delivered at a dose of 50 or 100 mg/kg by oral gavage and gabapentin (150 mg/kg) was delivered by i.p. injection. The rotarod test was employed to measure the CNS activity (motor coordination and balance) and the performance time was recorded at 0 (baseline), 1, 6 and 24 hr post-dose.

[3] = Survival of animals during the study; format: in vivo, rat; conditions: 150 mg/kg IP, Group 2
Experimental: as §1

[4] = Mean group body weight in Taxol model; format: in vivo, rat; conditions: 150 mg/kg IP, Group 2
Experimental: as §1

NCC1(CC(=O)O)CCCCC1 [Gabapentin, reference compound]
mean Von Frey force required for withdrawal ([1]; Baseline): 57.88 g | mean Von Frey force required for withdrawal ([1]; Day 13 pre dosing): 9.81 g | mean Von Frey force required for withdrawal ([1]; Day 14 1 hour post dosing): 45.13**** g | mean Von Frey force required for withdrawal ([1]; Day 14 2 hours post dosing): 55.75±2.78 g and 55.75**** g | mean Von Frey force required for withdrawal ([1]; Day 15 24 hours post dosing): 19.56 g | effect on neuropathic pain compared to the vehicle group (Von Frey test) ([1]; 150 mg/kg, 1 hour and 2 hour post dosing on study day 14): statistically significantly reduced the neuropathic pain | rotarod performance time compared with vehicle control group [2]: significantly decreased | Survived Animals in % ([3]; Study Day 13): 100% | Survived Animals in % ([3]; Study Day 14): 100% | Survived Animals in % ([3]; Study Day 15): 100% | Survived Animals in % ([3]; Study Day 16): 100% | Survived Animals in % ([3]; Study Day 17): 100% | Survived Animals in % ([3]; Study Day 18): 100% | Survived Animals in % ([3]; Study Day 19): 100% | Survived Animals in % ([3]; Study Day 20): 100% | Survived Animals in % ([3]; Study Day 21): 100% | Survived Animals in % ([3]; Study Day 22): 100% | Survived Animals in % ([3]; Study Day 23): 100% | Survived Animals in % ([3]; Study Day 24): 88% | Survived Animals in % ([3]; Study Day 25): 63% | Survived Animals in % ([3]; Study Day 28): 50% | Mean group body weight ([4]; Baseline): 223.38 g | Mean group body weight ([4]; Day 1): 235.25 g | Mean group body weight (% from baseline) ([4]; Day 1): 105.31% | Mean group body weight ([4]; Day 3): 237.50 g | Mean group body weight (% from baseline) ([4]; Day 3): 106.31% | Mean group body weight ([4]; Day 5): 258.13 g | Mean group body weight (% from baseline) ([4]; Day 5): 115.54% | Mean group body weight ([4]; Day 7): 269.25 g | Mean group body weight (% from baseline) ([4]; Day 7): 120.50% | Mean group body weight ([4]; Day 9): 278.75 g | Mean group body weight (% from baseline) ([4]; Day 9): 124.74% | Mean group body weight ([4]; Day 11): 287.63 g | Mean group body weight (% from baseline) ([4]; Day 11): 128.71% | Mean group body weight ([4]; Day 13): 289.50 g | Mean group body weight (% from baseline) ([4]; Day 13): 129.56% | Mean group body weight ([4]; Day 16): 281.00 g | Mean group body weight (% from baseline) ([4]; Day 16): 125.68% | Mean group body weight ([4]; Day 20): 274.38 g | Mean group body weight (% from baseline) ([4]; Day 20): 122.79% | Mean group body weight ([4]; Day 23): 263.38 g | Mean group body weight (% from baseline) ([4]; Day 23): 117.94% | Mean group body weight ([4]; Day 26): 247.75 g | Mean group body weight (% from baseline) ([4]; Day 26): 113.52%

From US20230048576A1, “COMPOUNDS FOR THE TREATMENT OF NEUROPATHIC PAIN” (City of Hope, priority 2019, published 2023)
